We go through two molecules from patent US20100056948A1, “Stimulation of Satiety Hormone Release” (priority 2008, published 2010).

Each structure is given as a SMILES string.

In experiment [1] the test system is rat distal ileum (L-cells). In words: GLP-1 release from isolated rat distal ileum segments into the bathing medium (active GLP-1 ELISA), with or without electrical field stimulation. Format: cell-based. As to conditions: for GLP-1 release, LA alone (mean ± SEM): LA 3 mg/mL 45 min, no E-stim. On the procedure: (§1) Female Sprague-Dawley rats, 8-12 weeks weighing 250-300 g were euthanized by CO2 and at least 17 cm of distal ileum was immediately dissected starting at the ileocecal junction. Intraluminal contents were flushed with warm modified Krebs Ringers bicarbonate (KRB) buffer and intestines placed into 50 mL tubes containing oxygenated, cold KRB buffer. Intact segments (1.5 cm) of rat distal ileum were oriented longitudinally, with the oral end fixed in the organ chamber between bipolar stimulating electrodes and the aboral end attached to a solid-state force transducer and submerged in a 10 ml-chamber containing KRB at 37° C. and constantly aerated with 95% O2/5% CO2 (FIG. 1). […] The entire assembly was placed into 37° C. KRB buffer in jacketed 10 mL myobath chambers. The length of each segment was adjusted to an initial resting tension of 1 g and maintained at 37° C. in a KRB buffer or KRB containing linoleic acid (LA, 3 mg/mL) and a dipeptidyl peptidase-4 inhibitor (to prevent proteolysis of GLP-1). Contractile activity was digitized and data acquired for off line analysis using PowerLab hardware and Chart software (ADInstruments, Colorado Springs, Colo.). In separate experiments, segments were incubated in KRB or KRB+LA in the presence or absence of electrical field stimulation continuously for 45 min. Samples of the bathing solutions taken at 45 min and mucosal epithelial scrapings were stored frozen (minus 80° C.).
Active GLP-1 concentration in thawed aliquots was measured by fluorescence on a plate reader using an ELISA (Linco Research, St. Charles, Mo.) with a detection range of 2-100 pM. This method measures both biologically active forms of GLP-1, that is GLP-1(7-36) and (GLP-1(7-36)) amide, that are currently known to be released by the intestinal mucosa. Measurements of GLP-1 were normalized to concentration in 10 mL volume and reported as pM. The mean and SEM GLP-1 release was calculated for each treatment. For each electrical stimulation condition (+/−LA) there were 2-6 rats with 2-4 segments of tissue per rat per condition.
Statistical analysis was performed that included all conditions (with condition defined by the combination of frequency, voltage and duration of the electrical stimulation) and included a term for condition, treatment (LA alone or LA plus electrical stimulation) as a repeated factor, and the interaction between the two. Treatment is a within-subject effect, allowing each subject's LA alone response to serve as the control for that subject's response with electrical stimulation from the same study day. GLP-1 release was analyzed by repeated measures analyses of variance (ANOVA) on all eleven conditions with LA alone or LA plus electrical stimulation as a repeated factor. The mean and SEM reported in the tables below are based on 2-6 rats per condition with data from two replicates of each electrical stimulation condition averaged per rat. The P values are reported based on repeated measures analyses of variance (ANOVA) for each analysis and for the pairwise comparisons. The data were log-transformed prior to analyses to better satisfy the underlying statistical modeling assumptions of equal variability and sampling from populations with normal distributions.
In general terms: ELISA stands for enzyme-linked immunosorbent assay.

Experiment [2] deals with segments of duodenum, jejunum ileum, colon, esophagus, stomach. The experiment can be described thus: GLP-1 release from segments of the entire GI tract incubated in linoleic acid. Format: cell-based, rat. As to conditions: LA 3 mg/mL, 45 minutes (FIG. 2).
In another experiment the test system is isolated ileum. In words: Muscle tone of isolated ileum (force transducer). Type of experiment: cell-based, rat. As to conditions: for Change in muscle tone of isolated ileum after 40 min compared to KRB buffer: P<0.05 by ANOVA. Here is the method: as §1
Muscle tone and contractile amplitude (calculated as the average cyclic minimum and maximum, respectively) were determined for 5 min periods, pre- (˜5 min before) and post-treatment (40 min after start). The tone and amplitude at −5 and +40 minutes for each condition was compared to that condition's baseline by one-way ANOVA.

With `CCCCC/C=C\C/C=C\CCCCCCCC(=O)O` [LA, linoleic acid], the “GLP-1 release, LA alone (mean ± SEM)” value came to 17.9 ± 4.1 pM in experiment [1] (paired control for 0.15 Hz 0.7 V 300 ms); 12.1 ± 4.0 pM in experiment [1] (paired control for 0.15 Hz 2 V 5 ms); 17.6 ± 5.9 pM in experiment [1] (paired control for 0.15 Hz 5 V 5 ms); 19.5 ± 9.0 pM in experiment [1] (paired control for 0.15 Hz 10 V 5 ms); 12.5 ± 1.7 pM in experiment [1] (paired control for 0.15 Hz 20 V 5 ms); 11.0 ± 2.8 pM in experiment [1] (paired control for 0.4 Hz 14 V 5 ms). For the same molecule, the “GLP-1 release, LA alone (mean ± SEM)” value in experiment [1] (paired control for 0.4 Hz 14 V 300 ms) is given as 12.7 ± 2.4 pM; in experiment [1] (paired control for 4 Hz 14 V 5 ms), 8.6 ± 1.8 pM; in experiment [1] (paired control for 20 Hz 14 V 5 ms) it was 14.4 ± 5.9 pM; in experiment [1] (paired control for 40 Hz 14 V 5 ms) it was 10.2 ± 2.1 pM; in experiment [1] (paired control for 80 Hz 14 V 5 ms), 20.6 ± 3.4 pM. Moreover, the “GLP-1 release, LA + E-stim (mean ± SEM)” value in experiment [1] (LA 3 mg/mL 45 min plus electrical stimulation 0.15 Hz 0.7 V 300 ms, p 0.257 vs LA alone) is given as 22.1 ± 4.2 pM; in experiment [1] (LA 3 mg/mL 45 min plus electrical stimulation 0.15 Hz 2 V 5 ms, p 0.948 vs LA alone), 11.1 ± 1.0 pM; in experiment [1] (LA 3 mg/mL 45 min plus electrical stimulation 0.15 Hz 5 V 5 ms, p 0.344 vs LA alone), 22.6 ± 9.4 pM; in experiment [1] (LA 3 mg/mL 45 min plus electrical stimulation 0.15 Hz 10 V 5 ms, p 0.311 vs LA alone), 29.4 ± 6.6 pM; in experiment [1] (LA 3 mg/mL 45 min plus electrical stimulation 0.15 Hz 20 V 5 ms, p 0.212 vs LA alone), 16.5 ± 3.7 pM; in experiment [1] (LA 3 mg/mL 45 min plus electrical stimulation 0.4 Hz 14 V 5 ms, p 0.761 vs LA alone), 10.4 ± 1.8 pM. The “GLP-1 release, LA + E-stim (mean ± SEM)” value is reported as 31.3 ± 5.9 pM in experiment [1] (LA 3 mg/mL 45 min plus electrical stimulation 0.4 Hz 14 V 300 ms, p 0.056 vs LA alone); 9.1 ± 1.4 pM in experiment [1] (LA 3 mg/mL 45 min plus electrical stimulation 4 Hz 14 V 5 ms, p 0.838 vs LA alone); 32.6 ± 12.2 pM in experiment [1] (LA 3 mg/mL 45 min plus electrical stimulation 20 Hz 14 V 5 ms, p 0.152 vs LA alone); 38.1 ± 11.1 pM in experiment [1] (LA 3 mg/mL 45 min plus electrical stimulation 40 Hz 14 V 5 ms, p 0.016 vs LA alone); 33.7 ± 12.4 pM in experiment [1] (LA 3 mg/mL 45 min plus electrical stimulation 80 Hz 14 V 5 ms, p 0.391, includes one result designated 100 pM (upper level of detection, actual 178 pM)). For the same molecule, in experiment [1] (TTX 0.5 μM concurrently with linoleic acid for 45 min (FIG. 7)), the “LA-evoked increase of GLP-1 in the presence of TTX” value is given as “persisted”. The “GLP-1 released after 45 mins incubation in LA” value in experiment [1] (compiled data from 51 distal ileum segments, LA 3 mg/mL, mean ± SEM, KRB buffer alone 3.6 pM) worked out at 21.9 ± 2.6 pM. The “Enhancement of GLP-1 released during incubation with nutrient stimulus by E-stim compared to LA alone” value in experiment [1] (four electrical stimulation conditions with total charge 1400, 1680, 2800 and 5600 μC) is recorded as 150-300%. Besides, the “Increase of GLP-1 release by electrical stimulation together with LA over that evoked by LA alone” value in experiment [1] (in the presence of TTX 0.5 μM, E-stim 14V 0.4 Hz 300 ms, 45 min) is 239±64%. In addition, the “LA concentration giving maximal GLP-1 response” value in experiment [1] (tissue incubated in 1, 3 and 10 mg/mL LA, data not shown) came to 3 mg/mL. The “GLP-1 concentration over time” value in experiment [1] (two segments of ileum incubated in 3 mg/ml LA (FIG. 4)) is “increased over time”. In addition, the “GLP-1 concentration in the bathing medium” value was “increased” in experiment [2] (segments of duodenum, jejunum ileum and colon); “not” in experiment [2] (segments of esophagus or stomach). In addition, the “Change in muscle tone of isolated ileum after 40 min compared to KRB buffer” value in the experiment on isolated ileum (LA combined with E-stim 14V 40 Hz 5 ms) and in the experiment with isolated ileum (LA combined with E-stim 14 V 80 Hz 5 ms) was “significant reduction” each time. In addition, the “Muscle tone of isolated ileum compared to KRB buffer alone” value in the experiment with isolated ileum (LA with E-stim 14V 0.4 Hz 300 ms) and in the experiment with isolated ileum (LA with E-stim 14V 20 Hz 5 ms) was “not different” throughout. Moreover, in the experiment with isolated ileum (incubation in LA alone (FIG. 9)), the “Change in muscle tone of isolated ileum after 40 min” value is listed as “tended to decrease”.

As to `NC1=N[C@H](O)[C@H]2[C@H]3O[C@]4(O)O[C@@H]([C@@H](O)[C@@]2(N1)[C@@H]4O)[C@]3(O)CO` [TTX, tetrodotoxin], in experiment [1], the “Effect of TTX alone on GLP-1 release” value is “no effect” and the “Effect of tetrodotoxin on the two-fold increase in GLP-1 evoked by direct electrical stimulation of ileal tissue” value is “did not prevent”.
